Laboratory results reported in patent publication US12568972B2, “Pyridazinol compounds and derivatives, preparation methods, herbicidal compositions and applications thereof” (Qingdao Kingagroot Chemical Compound Co., Ltd., priority 2018, dated 2026).

Legend:
Assay in all cases: Post-emergence test, weed control effect
Type in all cases: in vivo
Settings in all cases: after 3 weeks
Amaranthus retroflexus = system: Amaranthus retroflexus
Source text: (§1) The activity level standard of harmful plant destruction (i.e. growth inhibition rate) is as follows: • Level 10: completely dead; • Level 9: above 90% growth inhibition rate; • Level 8: above 80% growth inhibition rate; • Level 7: above 70% growth inhibition rate; • Level 6: above 60% growth inhibition rate; • Level 5: above 50% growth inhibition rate; • Level 4: above 40% growth inhibition rate; • Level 3: above 30% growth inhibition rate; • Level 2: above 20% growth inhibition rate; • Level 1: below 20% growth inhibition rate; • Level 0: no effect.
(§2) The above described growth inhibition rates are fresh weight inhibition rates.
(§3) Experiment of post-emergence test: monocotyledonous and dicotyledonous weed seeds as well as main crop seeds (i.e., wheat, corn, rice, soybean, cotton, oilseed rape, millet and sorghum) were put into a plastic pot loaded with soil, then covered with 0.5-2 cm of soil, and the seeds were allowed to grow in good greenhouse environment. The test plants were treated at 2-3 leaf stage 2-3 weeks after sowing. The test compounds of the invention were dissolved in acetone respectively, then added with Tween-80 and diluted by a certain amount of water to give solutions with certain concentrations, and added with 80% vegetable oil methyl ester synergist at 1500 g/ha. The solution was sprayed to the plants with a sprayer. The plants were cultured for 3 weeks in the greenhouse.

Rorippa indica = system: Rorippa indica
Source text: as §1, §2, §3

Chenopodiaceae = system: Chenopodiaceae
Source text: as §1, §2, §3

Veronica polita = system: Veronica polita
Source text: as §1, §2, §3

Cc1ccc(S(=O)(=O)Oc2cc(C(F)(F)F)nnc2-c2ccnc(F)c2)cc1 [Compound 1-126]
10: weed control effect, Amaranthus retroflexus (activity level) (Amaranthus retroflexus; Dose 3000 g/ha) | weed control effect, Rorippa indica (activity level) (Rorippa indica; Dose 3000 g/ha) | weed control effect, Chenopodiaceae (activity level) (Chenopodiaceae; Dose 3000 g/ha) | weed control effect, Veronica polita (activity level) (Veronica polita; Dose 3000 g/ha)

Oc1cc(C(F)(F)F)nnc1-c1cncc(C2CC2)c1 [Compound 214]
10: weed control effect (activity level), Amaranthus retroflexus (Amaranthus retroflexus; dose 2000 g/ha) | weed control effect (activity level), Rorippa indica (Rorippa indica; dose 2000 g/ha) | weed control effect (activity level), Chenopodiaceae (Chenopodiaceae; dose 2000 g/ha) | weed control effect (activity level), Veronica polita (Veronica polita; dose 2000 g/ha)

O=C(CCc1ccccc1)Oc1cc(C(F)(F)F)nnc1-c1ccc(F)cc1 [Compound 1-99]
10: weed control effect, Amaranthus retroflexus (activity level) (Amaranthus retroflexus; Dose 3000 g/ha) | weed control effect, Rorippa indica (activity level) (Rorippa indica; Dose 3000 g/ha) | weed control effect, Chenopodiaceae (activity level) (Chenopodiaceae; Dose 3000 g/ha) | weed control effect, Veronica polita (activity level) (Veronica polita; Dose 3000 g/ha)

O=S(=O)(NCCCCl)Oc1cc(C(F)(F)F)nnc1-c1cccc(F)c1 [Compound 1-124]
10: weed control effect, Amaranthus retroflexus (activity level) (Amaranthus retroflexus; Dose 3000 g/ha) | weed control effect, Rorippa indica (activity level) (Rorippa indica; Dose 3000 g/ha) | weed control effect, Chenopodiaceae (activity level) (Chenopodiaceae; Dose 3000 g/ha) | weed control effect, Veronica polita (activity level) (Veronica polita; Dose 3000 g/ha)

Cn1nc(OCc2ccccc2)cc1-c1nnc(C(F)(F)F)cc1O [Compound 784]
10: weed control effect (activity level), Amaranthus retroflexus (Amaranthus retroflexus; Dose 3000 g/ha) | weed control effect (activity level), Rorippa indica (Rorippa indica; Dose 3000 g/ha) | weed control effect (activity level), Chenopodiaceae (Chenopodiaceae; Dose 3000 g/ha) | weed control effect (activity level), Veronica polita (Veronica polita; Dose 3000 g/ha)

COP(=O)(OC)Oc1cc(C(F)(F)F)nnc1-c1ccc(F)c(Cl)c1 [Compound 1-167]
10: weed control effect, Amaranthus retroflexus (activity level) (Amaranthus retroflexus; Dose 3000 g/ha) | weed control effect, Rorippa indica (activity level) (Rorippa indica; Dose 3000 g/ha) | weed control effect, Chenopodiaceae (activity level) (Chenopodiaceae; Dose 3000 g/ha) | weed control effect, Veronica polita (activity level) (Veronica polita; Dose 3000 g/ha)

Oc1cc(C(F)(F)F)nnc1-c1ccccn1 [Compound 263]
10: weed control effect (activity level), Amaranthus retroflexus (Amaranthus retroflexus; dose 2000 g/ha) | weed control effect (activity level), Rorippa indica (Rorippa indica; dose 2000 g/ha) | weed control effect (activity level), Chenopodiaceae (Chenopodiaceae; dose 2000 g/ha) | weed control effect (activity level), Veronica polita (Veronica polita; dose 2000 g/ha)

Oc1cc(C(F)(F)F)nnc1-c1c(F)ccnc1F [Compound 987]
10: weed control effect (activity level), Amaranthus retroflexus (Amaranthus retroflexus; Dose 3000 g/ha) | weed control effect (activity level), Rorippa indica (Rorippa indica; Dose 3000 g/ha) | weed control effect (activity level), Chenopodiaceae (Chenopodiaceae; Dose 3000 g/ha) | weed control effect (activity level), Veronica polita (Veronica polita; Dose 3000 g/ha)

Oc1cc(C(F)(F)F)nnc1-c1cc(F)cnc1F [Compound 986]
10: weed control effect (activity level), Amaranthus retroflexus (Amaranthus retroflexus; Dose 3000 g/ha) | weed control effect (activity level), Rorippa indica (Rorippa indica; Dose 3000 g/ha) | weed control effect (activity level), Chenopodiaceae (Chenopodiaceae; Dose 3000 g/ha) | weed control effect (activity level), Veronica polita (Veronica polita; Dose 3000 g/ha)

CC(C)=Cc1nnc(C(F)(F)F)cc1O [Compound 1523]
10: weed control effect (activity level), Amaranthus retroflexus (Amaranthus retroflexus; Dose 3000 g/ha) | weed control effect (activity level), Rorippa indica (Rorippa indica; Dose 3000 g/ha) | weed control effect (activity level), Chenopodiaceae (Chenopodiaceae; Dose 3000 g/ha) | weed control effect (activity level), Veronica polita (Veronica polita; Dose 3000 g/ha)

CCCCC(=O)Oc1cc(C(F)(F)F)nnc1-c1ccc(Cl)c(Cl)c1 [Compound 1-7]
10: weed control effect, Amaranthus retroflexus (activity level) (Amaranthus retroflexus; Dose 3000 g/ha) | weed control effect, Rorippa indica (activity level) (Rorippa indica; Dose 3000 g/ha) | weed control effect, Chenopodiaceae (activity level) (Chenopodiaceae; Dose 3000 g/ha) | weed control effect, Veronica polita (activity level) (Veronica polita; Dose 3000 g/ha)

O=S(=O)(Cc1ccccc1)Oc1cc(C(F)(F)F)nnc1-c1ccc(F)cc1 [Compound 1-143]
10: weed control effect, Amaranthus retroflexus (activity level) (Amaranthus retroflexus; Dose 3000 g/ha) | weed control effect, Rorippa indica (activity level) (Rorippa indica; Dose 3000 g/ha) | weed control effect, Chenopodiaceae (activity level) (Chenopodiaceae; Dose 3000 g/ha) | weed control effect, Veronica polita (activity level) (Veronica polita; Dose 3000 g/ha)

CCc1cnn(C)c1-c1nnc(C(F)(F)F)cc1O [Compound 809]
10: weed control effect (activity level), Amaranthus retroflexus (Amaranthus retroflexus; Dose 3000 g/ha) | weed control effect (activity level), Rorippa indica (Rorippa indica; Dose 3000 g/ha) | weed control effect (activity level), Chenopodiaceae (Chenopodiaceae; Dose 3000 g/ha) | weed control effect (activity level), Veronica polita (Veronica polita; Dose 3000 g/ha)

CCC/C(C)=N\Oc1cc(C(F)(F)F)nnc1-c1ccc(OC)cc1 [Compound 1-171]
10: weed control effect, Amaranthus retroflexus (activity level) (Amaranthus retroflexus; Dose 3000 g/ha) | weed control effect, Rorippa indica (activity level) (Rorippa indica; Dose 3000 g/ha) | weed control effect, Chenopodiaceae (activity level) (Chenopodiaceae; Dose 3000 g/ha) | weed control effect, Veronica polita (activity level) (Veronica polita; Dose 3000 g/ha)

Oc1cc(C(F)(F)F)nnc1-c1cc(Cl)ncc1Cl [Compound 224]
10: weed control effect (activity level), Amaranthus retroflexus (Amaranthus retroflexus; dose 2000 g/ha) | weed control effect (activity level), Rorippa indica (Rorippa indica; dose 2000 g/ha) | weed control effect (activity level), Chenopodiaceae (Chenopodiaceae; dose 2000 g/ha) | weed control effect (activity level), Veronica polita (Veronica polita; dose 2000 g/ha)

Oc1cc(C(F)(F)F)nnc1-c1cc(Cl)c(-c2ccccc2)c(Cl)c1 [Compound 168]
10: weed control effect (activity level), Amaranthus retroflexus (Amaranthus retroflexus; dose 2000 g/ha) | weed control effect (activity level), Rorippa indica (Rorippa indica; dose 2000 g/ha) | weed control effect (activity level), Chenopodiaceae (Chenopodiaceae; dose 2000 g/ha) | weed control effect (activity level), Veronica polita (Veronica polita; dose 2000 g/ha)
